“Also recorded” adds a separate entry of the source. Residues, ends and D or L forms follow the SMILES beside them.
What was measured:
[1] = target: T1, VQIVYK (PHF6) APR from tau (Homo sapiens, UniProt P10636); assay: Th-T aggregation kinetics of VQIVYK with sub-stoichiometric variant peptides (1:5) or CAP1; type: biochemical; details: Fig. 8c
T1 construct: The VQIVYK (PHF6) stretch, located in the C-terminal repeat domain of tau; made in house; host or cells: chemical solid phase peptide synthesis (no expression host)
Source text: To experimentally investigate these calculations, we synthesised a library of 90 peptides corresponding to 78% of all single amino acid substitutions of the VQIVYK APR. We excluded introduction of cysteines to avoid further complexity introduced by the formation of intermolecular disulphides and also avoided substitutions of the Tyr residue at position five, since it enables fast and accurate readout of peptide concentration. First, peptide:APR mixtures were monitored using Th-T aggregation kinetic assays. For this screen, we used sub-stoichiometric mixtures of the variant peptides against PHF6 (1:5 analogy). The reasoning behind this was that it enabled tracing of subtle differences in aggregation kinetics, while at the same time reduced the propensity of most variants to participate in self-assembly. […] For the rest, following curve fitting of the monitored Th-T curves (Figs. 5a, b and S4), we calculated and summarised fold changes of aggregation half-times (t1/2) in a volcano plot, with the negative logarithm of the p-values represented on the vertical axis (Fig. 5c). […] It should be noted, however, that changes in fluorescence intensity can also potentially reflect morphological differentiation of the produced fibrils that can affect Th-T binding. […]

[2] = target: T2, recombinant full-length tau (tau^2N4R) (Homo sapiens, UniProt P10636); assay: Th-T kinetics of heparin-induced aggregation of recombinant full-length tau; type: biochemical; details: Fig. 8d
T2 construct: Recombinant full-length tau (tau^2N4R) was produced following previous established protocols; made in house
T2 sequence (P10636 1-441 isoform P10636-8): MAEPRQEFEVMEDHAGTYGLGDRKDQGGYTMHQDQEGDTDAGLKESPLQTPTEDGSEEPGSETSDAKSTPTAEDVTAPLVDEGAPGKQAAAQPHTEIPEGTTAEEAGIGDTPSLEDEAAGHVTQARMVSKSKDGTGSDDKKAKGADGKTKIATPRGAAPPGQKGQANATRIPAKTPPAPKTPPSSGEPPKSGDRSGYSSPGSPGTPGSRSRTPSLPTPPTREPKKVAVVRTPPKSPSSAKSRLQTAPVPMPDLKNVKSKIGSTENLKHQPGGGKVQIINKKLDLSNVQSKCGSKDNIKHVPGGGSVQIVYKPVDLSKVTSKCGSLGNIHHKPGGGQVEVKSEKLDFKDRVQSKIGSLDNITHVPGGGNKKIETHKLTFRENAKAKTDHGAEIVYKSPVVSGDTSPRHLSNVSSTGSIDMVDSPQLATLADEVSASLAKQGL
Protocol: Recombinant full-length tau (tau^2N4R) was produced following previous established protocols. Lyophilised protein aliquots were freshly dissolved in 10 mM HEPES pH 7.4 supplemented with 100 mM NaCl at a final concentration of 10 μM. After filtration, using […] PVDF filters, the protein solution was spiked with 5 μ μM of heparin (Sigma) and aggregation was monitored by adding 25 μM of Th-T in half-area black 96-well microplates (Corning, USA). Fluorescence was measured in triplicates, using a FluoStar Omega plate reader (BMG Labtech, Germany) at 37 °C, equipped with an excitation filter at 440 nm and emission filter at 490 nm. To generate seeds, endpoint amyloid fibrils were sonicated for 15 min (30 s on, 30 s off) at 10 °C, using a Bioruptor Pico sonication device (Diagenode).

ATTO633-monomeric tau = target: T3, ATTO633-monomeric tau (Homo sapiens, UniProt P10636); assay: Microscale thermophoresis, monomeric rTau; type: binding; details: MST, 25 nM ATTO633-monomeric tau, CAP1 titrated from 50 μM; n = 3
T3 construct: heparin-induced aggregation of recombinant full-length tau (rTau); made in house
T3 sequence (P10636 1-441 isoform P10636-8): as above
Protocol: MST measurements were performed to calculate binding affinities. Monomeric tau was labelled using amine reactive ATTO633 (ATTO633-NHS), following the manufacturer guidelines. Labelled tau aggregates were prepared using a 1:9 analogy of labelled to unlabelled monomeric tau, following the same aggregation protocol described for the unlabelled protein. 25 nM of ATTO633-monomeric tau or ATTO633-tau seeds were mixed against the CAP1 inhibitor, which was dissolved and titrated down starting from 50 μM, in tau buffer (HEPES 10 mM, 100 mM NaCl). Measurements were recorded on a Monolith NT automated instrument (NanoTemper Technologies GmbH, Germany) with a red-laser channel at 5% LED excitation power and medium MST power at ambient conditions. Affinity constants and experimental data fitting was performed using the NanoTemper analysis software (v2.2.4) and results were depicted as differentials between the bound and unbound state after baseline subtraction (ΔFnorm) over inhibitor concentration in the logarithmic scale.

[3] = tested on: HEK293 Tau^RD-P301S-CFP/YFP expressing biosensor cells; assay: Seeding inhibition in FRET tau biosensor cells, AD brain extracts; type: cell-based, human; details: CAP1 500 nM pre-treatment, extracts diluted 500x, three patients in duplicates, n = 6
Source text: Ethical approval to access and work on the human tissue samples was given by the UZ Leuven ethical committee (Leuven/Belgium; File-No. S63759). An informed consent for autopsy and scientific use of autopsy tissue with clinical information was granted from all subjects involved. Following approval, brain tissue from autopsy cases was received from UZ/KU Leuven Biobank. Sarkosyl-insoluble material was extracted from cortex tissue of three individual patients with Alzheimer’s disease (designated here as A1–A3, Supplementary Table 3), as shown previously. Briefly, the tissue was homogenised with a FastPrep (MP Biomedicals) in 10 volumes (w/v) cold buffer consisting of 10 mM Tris-HCl pH 7.4, 0.8 M NaCl, 1 mM EGTA and 10% sucrose, followed by centrifugation at 20,000 × g for 20 min at 4 °C. Universal Nuclease (Pierce) was added to the supernatant, followed by a 30 min incubation at room temperature. The sample was then brought to 1% Sarkosyl (Sigma) and incubated for 1 h at room temperature while shaking (400 rpm), followed by centrifugation at 350,000 × g for 1 h at 4 °C. The pellet was washed once, resuspended in 50 mM Tris-HCl pH 7.4 (175 mg of starting material per 100 µl) and stored at −80 °C. […]

With `CC[C@H](C)[C@H](NC(=O)[C@H](CCC(N)=O)NC(=O)[C@H](Cc1c[nH]c2ccccc12)NC(=O)[C@H](CCCNC(=N)N)NC(=O)[C@H](CO)NC(=O)CNC(=O)[C@H](CCCNC(=N)N)NC(=O)[C@H](CCCCN)NC(=O)[C@H](Cc1ccc(O)cc1)NC(=O)[C@@H](NC(=O)[C@@H](NC(=O)[C@H](CCC(N)=O)NC(=O)[C@H](Cc1c[nH]c2ccccc12)NC(=O)[C@@H](N)CCCNC(=N)N)[C@@H](C)CC)C(C)C)C(=O)N[C@H](C(=O)N[C@@H](Cc1ccc(O)cc1)C(=O)N[C@@H](CCCCN)C(=O)N[C@@H](CCCNC(=N)N)C(=O)O)C(C)C` [CAP1] (H-RWQIVYKRGSRWQIVYKR-OH; N-terminus and C-terminus assumed) the “inhibition of self-assembly of the PHF6 hexapeptide” value [1] was “successfully inhibited; also recorded: inhibits”, the “inhibition of heparin-induced aggregation of rTau” value [2] was “successfully inhibited; also recorded: inhibits” and the “binding to monomeric rTau” value (ATTO633-monomeric tau) was “no significant binding”. For the same compound, the “seed propagation of AD patient brain extracts (fraction of cells containing tau inclusions)” value [3] was “significantly reduces”.
